Results on three compounds are retold here after publication PMC11048566, “The Development of a Regulator of Human Serine Racemase for N-Methyl-D-aspartate Function” (Biomedicines, 2024).

As a reminder, the IC50 is the midpoint of a concentration-inhibition curve.

Experiment [1] addresses T1, human serine racemase (hSR) (Homo sapiens, UniProt Q9GZT4).
T1 construct: 6xHis (C); made in house; host or cells: E. coli BL21 (pET42b-hSR)
T1 sequence (Q9GZT4 1-340): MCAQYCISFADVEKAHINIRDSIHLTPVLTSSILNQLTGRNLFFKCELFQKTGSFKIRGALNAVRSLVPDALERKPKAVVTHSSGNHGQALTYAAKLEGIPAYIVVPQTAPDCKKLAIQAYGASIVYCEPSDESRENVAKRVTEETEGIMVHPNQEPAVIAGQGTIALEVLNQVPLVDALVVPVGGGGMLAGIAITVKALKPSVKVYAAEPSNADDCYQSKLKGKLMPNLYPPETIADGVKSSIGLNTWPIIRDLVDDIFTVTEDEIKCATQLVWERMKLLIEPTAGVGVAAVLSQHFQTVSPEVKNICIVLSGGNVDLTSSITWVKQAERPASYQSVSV
As to the kind of experiment: Two-step enzymatic assay of hSR racemization (hSR, then DAAO/HRP/Amplex Red). It is filed as biochemical. As to conditions: within the physiological range of ATP concentration. How it is done: This assay was designed by the formation of D-serine by hSR and the oxidation of D-serine by D-amino acid oxidase (DAAO) and horseradish peroxidase (HRP) with the peroxidase substrate Amplex Red^TM (10-acetyl-3,7-dihydroxyphenoxazine) (Thermo Fisher Scientific, Lagoas Park, Porto Salvo, Portugal). The hSR activity assay reaction was carried out in 100 mM HEPES buffer, pH 8.0, containing 2.4 µg of hSR protein, 50 µM PLP, 1 mM MgCl2, 0.25 mM ATP, 400 mM L-serine, and 2 times serially diluted α12G (8 mM to 0.2 µM). Compound-free wells were used as blank controls in the assay. All reactions were performed in duplicates. The reaction mixtures were incubated at 37 °C for 4 h. The reaction was stopped by heating the reaction mixtures at 95 °C for 10 min and storage at 4 °C. A reaction mixture for the second-step enzymatic assay, DAAO assay, with a final volume of 100 µL was made with a 10 µL sample from hSR assay, 45 µM FAD, 10 units of HRP, 60 ng DAAO, 10 mM lead acetate, 10 mM Amplex Red^TM, and 100 mM Tris HCl (pH = 8.5). Lead acetate was used to conjugate α12G as the latter would inhibit the DAAO function in the fluorometric assay, leading to an […] of the effects of α12G on hSR. The fluorescence was detected by the TECAN Infinite 200 Microplate Reader (GMI, MN, USA). The racemization percentage was calculated as follows: racemization % = (Fsample, 20 min − Fsample, 0 min)/(Fblank, 20 min − Fblank, 0 min) × 100%. […] The two-step enzymatic assay described in Section 2.3 was designed by the formation of D-serine by hSR and the consequent oxidation of D-serine by DAAO. The inhibition of DAAO, which also degrades D-serine, by α12G will lead to overestimating the effects of racemization by hSR. […] Therefore, lead acetate was applied to conjugate α12G for the determination of racemization. […] On the contrary, when the concentration of α12G is higher than 2 mM, the racemization activity of hSR is inhibited.

For experiment [2], the target named is T2, hSR (Homo sapiens, UniProt Q9GZT4).
T2 construct: 6xHis (C); made in house; host or cells: E. coli BL21 (pET42b-hSR)
T2 sequence (Q9GZT4 1-340): T1 sequence (Q9GZT4 1-340)
The arrangement: method as in PMID 29899358. As to conditions: 2 mM ATP, cited from earlier work.

Experiment [3] has as its system SR. As to the kind of experiment: D-serine and L-serine levels in cerebral cortex and plasma after IV DMM (LC-MS/MS). In kind it is in vivo, C57BL/6J male mice. To be noted: 400 mg/kg DMM IV, 30 min after administration, vs vehicle, n = 3. How it is done: For the determination of DAA concentration, C57BL/6J male mice received 50, 100, 200, and 400 mg/kg DMM (TGI, Tokyo, Japan) IV, and the mice were euthanized 30 min later. Cerebral cortex and plasma samples (n = 3 − 9) were collected and stored at −80 °C until the time of analysis. The brain tissues were weighed and homogenized on ice with 5-fold volumes of 1000 ng/mL tolbutamide (internal standard, IS, Sigma-Aldrich, St. Louis, MO, USA)) in methanol (Merck KGaA, Darmstadt, Germany). The plasma was combined with 4-fold volumes of 1250 ng/mL IS in methanol and vortexed for 2 min. The homogenates were centrifuged at 12,000× g […] for 10 min at 4 °C in an Eppendorf 5417R centrifuge (Eppendorf, Hamburg, Germany). The supernatant was passed through a 0.22 μm filter (Merck KGaA, Darmstadt, Germany) and analyzed by liquid chromatography–tandem mass spectrometry (LC-MS/MS) using the following method: An Agilent 1260 LC quaternary pump with an Agilent 1260 LC infinity autosampler and an Agilent 1100 column oven (Marshall Scientific, Hampton, NH, USA) were used to inject the samples onto an Astec Chirobiotic column (5 μm, 250 × 4.6 mm I.D., Sigma-Aldrich, St. Louis, MO, USA). The mobile phase was a 20/80 mixture of mobile phase A (0.1% formic acid (Sigma-Aldrich, St. Louis, MO, USA) in ddH2O) and mobile phase B (0.1% formic acid in acetonitrile), and the run was isocratic at a flow rate of 0.3 mL/min. Quantitation was achieved by MS/MS detection in positive ion multiple reaction monitoring (MRM) mode for analyte and IS using an AB SCIEX 3200 triple quadrupole ion trap mass spectrometer (AB Sciex, Framingham, MA, USA). The parameters for curtain gas, ion spray voltage, temperature, ion source gas 1, and ion source gas 2 were 10 psi, 5000 V, 550 °C, 35 psi, and 30 psi, respectively. AB SCIEX Analyst® (version 1.6.3, AB Sciex, Framingham, MA, USA) software was used for system control and data processing. To investigate the regulation of racemization by hSR, we applied DMM, the pro-drug of malonate, to C57BL/6J male mice. The mice were euthanized 30 min after the administration. The cerebral cortex and plasma were harvested and analyzed by LC-MS/MS to quantify D-serine and L-serine levels after the treatment with DMM (Figure 1). […] L-serine levels were also raised in the cerebral cortex 1.44 times (p < 0.001; n = 3; Student’s t-test) and in plasma 1.55 times (p < 0.05; n = 3; Student’s t-test).

For experiment [4], the target named is D-amino acid oxidase (DAAO) (Homo sapiens, UniProt P14920). Put plainly: DAAO enzymatic assay. It is filed as biochemical. How it is done: A reaction mixture for the DAAO assay, with a final volume of 100 µL was made with 1 µL 2 times serially diluted α12G (4 µM to 7.8 nM), 45 µM FAD, 10 units of HRP, 60 ng DAAO, 10 mM Amplex Red^TM, 5 mM D-serine, and 100 mM Tris HCl (pH = 8.5). All reactions were performed in duplicates. The fluorescence was detected by a fluorometric meter (TECAN Infinite 200). The racemization percentage was calculated as follows: activity % = (Fsample, 20 min − Fsample, 0 min)/(Fblank, 20 min − Fblank, 0 min) × 100%.

Experiment [5] concerns SR. To be noted: two-step enzymatic assay; read-out: IC50 of SR inhibition; cited from earlier work.

Turning to `Nc1ncnc2c1ncn2[C@@H]1O[C@H](COP(=O)(O)OP(=O)(O)OP(=O)(O)O)[C@@H](O)[C@H]1O` [ATP], the “ATP concentration that promotes the most racemization by hSR” value in experiment [1] is on record as 0.25 mM. For the same compound, the “Increase in enzyme activation, L-serine dehydration (kcat/KM 8.1 to 253 s^−1 M^−1)” value in experiment [2] (200 mM L-serine, 37 °C) is 31 fold. Besides, in experiment [2], the “Enhancement of D-serine dehydration (kcat/KM 0.6 to 2.4 s^−1 M^−1)” value is given as 4 fold and the “Enhancement of L-serine racemization (kcat/KM 9.2 to 17.5 s^−1 M^−1)” value is on record as 1.9 fold.
Consider `COC(=O)CC(=O)OC` [DMM, dimethyl malonate], for which, in experiment [3], the “D-serine level in plasma, raised” value is 1.75 times; the “D-serine level in the cerebral cortex, raised” value stood at 1.43 times; the “L-serine level in plasma, raised” value is given as 1.55 times; the “L-serine level in the cerebral cortex, raised” value was 1.44 times.
Regarding `Nc1ccccc1N1CCOCC1` [x-0458, 2-morpholinoaniline, reference compound], the “Effect on DAAO” value in experiment [4] is on record as “has an inhibitory effect on DAAO”. Besides, in experiment [5], the IC50 was 10.6 µM.
